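Cells were grown in 96-well plates and exposed to each compound for 48 hours at five concentrations; endpoints were interpolated linearly between bracketing concentrations, or set to the highest concentration if not reached. The concentration for 50% growth inhibition is given as GI50. At the TGI there is no net growth.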
How the values were obtained:
Test in all cases: inhibition of tumour cell growth, NCI panel, 48 h
[1] = tested on: COLO 205 colon
[2] = tested on: HCT-15 colon
[3] = tested on: OVCAR-8 ovarian
[4] = tested on: RPMI-8226 leukemia
[5] = tested on: SF-295 CNS
[6] = tested on: SF-539 CNS
[7] = tested on: SNB-19 CNS
[8] = tested on: DU-145 prostate
[9] = tested on: MDA-MB-231 breast
[10] = tested on: HS 578T breast

SMILES | TGI [1] [µM] | TGI [2] [µM] | TGI [3] [µM] | TGI [4] [µM] | TGI [5] [µM] | TGI [6] [µM] | TGI [7] [µM] | TGI [8] [µM] | TGI [9] [µM] | GI50 [1] [µM] | GI50 [8] [µM] | GI50 [2] [µM] | GI50 [9] [µM] | GI50 [3] [µM] | GI50 [4] [µM] | GI50 [5] [µM] | GI50 [7] [µM] | TGI [10] [µM] | GI50 [10] [µM] | GI50 [6] [µM]
CC1=NN(c2ccccc2)C(=O)C12[C@H](c1ccccc1)C2(C#N)C#N (some centres undefined) | 4.42 | 13.9 | 7.27 | 4.08 | 25.5 | 27.7 | 29.5 | – | – | – | – | – | – | – | – | – | – | – | – | –
O=C(c1ccccc1)c1nnn(Cc2ccccc2Cn2nnc(C(=O)c3ccccc3)c2C(=O)c2ccccc2)c1C(=O)c1ccccc1 | > 100 | > 100 | > 100 | > 100 | > 100 | > 100 | > 100 | – | – | – | – | – | – | – | – | – | – | – | – | –
C1CSC[C@H]2COC[C@@H](CSCCS1)S2 | > 100 | > 100 | > 100 | – | > 100 | > 100 | > 100 | > 100 | > 100 | – | – | – | – | – | – | – | – | – | – | –
CCC1CCCCN1CC(C(C)=O)C(c1ccccc1)c1c(O)c2ccccc2oc1=O (centres undefined) | > 100 | > 100 | > 100 | > 100 | > 100 | > 100 | > 100 | – | – | – | – | – | – | – | – | – | – | – | – | –
CN(C)C=N[C@@H](C(=O)O)c1ccccc1 | > 100 | > 100 | > 100 | > 100 | > 100 | – | > 100 | > 100 | > 100 | – | – | – | – | – | – | – | – | – | – | –
C=CCC12CC(=O)CCC1c1ccc(OC)cc1C2=O (centres undefined) | > 100 | > 100 | > 100 | > 100 | > 100 | > 100 | > 100 | – | – | – | – | – | – | – | – | – | – | – | – | –
N#C/C(=C/N1CCN(C(=O)c2ccco2)C1=S)C(=O)Nc1ccc(Cl)cc1 | > 50 | > 50 | > 50 | 32.2 | > 50 | – | > 50 | > 50 | > 50 | 25.6 | 15.9 | 21.3 | 18.4 | 20.6 | 10.5 | 20.2 | 27.6 | – | – | –
CC(/C=C/C(=O)c1sc(C(N)=S)nc1C)=C\c1ccccc1 | > 100 | > 100 | > 100 | 44.6 | > 100 | > 100 | 31.2 | – | – | – | – | – | – | – | – | – | – | – | – | –
COc1cc(C)cc(C(=O)/C=C/c2ccccc2)c1O | 38.1 | 40.9 | 40 | 63.3 | 39.4 | – | 38.5 | 29.4 | 47.9 | – | – | – | – | – | – | – | – | > 100 | – | –
Cc1cc(=O)[nH]c(NNC(C#N)c2ccccc2O)n1 (centres undefined) | > 100 | > 100 | > 100 | > 100 | > 100 | > 100 | – | – | – | – | – | – | – | – | – | – | – | – | – | –
CC12OC(C(=O)C13CC3)C1C(=O)c3c(O)ccc(O)c3C(=O)C12 (centres undefined) | 35.8 | 24.7 | 36.1 | – | – | 49.9 | > 100 | – | 46.6 | 15.4 | – | 11 | 24.6 | 15.6 | – | – | 28.9 | 46.2 | 16.3 | 19.4
Cc1ccc(N2C(=O)/C(=C/c3ccc(N(CCC#N)CCC#N)cc3)N=C2COc2ccc(Cl)cc2Cl)cc1 | > 100 | > 100 | > 100 | > 100 | > 100 | > 100 | > 100 | – | – | – | – | – | – | – | – | – | – | – | – | –
O=C1C(Cl)=C(Cl)C(=O)N1c1ccc(Cl)c(Cl)c1Cl | > 100 | > 100 | – | > 100 | > 100 | > 100 | > 100 | – | – | – | – | – | – | – | – | – | – | – | – | –
Brc1cc(C2OCCCO2)ccc1OCc1ccccc1 | 56.9 | > 100 | > 100 | > 100 | > 100 | > 100 | > 100 | – | – | – | – | – | – | – | – | – | – | – | – | –
CCOC(=O)c1sc2c(C(=O)OCC)n3cc(C)cc(C)c3c2c1O | > 100 | – | > 100 | – | > 100 | > 100 | > 100 | – | – | – | – | – | – | – | – | – | – | – | – | –
CCCC(O)c1cn(-c2cccc(S(=O)(=O)O)c2)nn1 (centres undefined) | > 100 | > 100 | > 100 | > 100 | > 100 | > 100 | > 100 | – | – | – | – | – | – | – | – | – | – | – | – | –
COc1ccc(Br)c(CN2CCc3ccccc32)c1OS(=O)(=O)c1ccc(C)cc1 | 33.8 | > 100 | > 100 | > 100 | > 100 | 57.8 | > 100 | – | – | – | – | – | – | – | – | – | – | – | – | –
CCOC(=O)[C@@]12C(C)=CC(=O)O[C@]1(C)C1C(=O)NC(=O)C12 (some centres undefined) | > 100 | – | > 100 | > 100 | > 100 | > 100 | > 100 | – | – | – | – | – | – | – | – | – | – | – | – | –

SMILES | TGI [1] [µM] | TGI [2] [µM] | TGI [3] [µM] | TGI [4] [µM] | TGI [5] [µM] | TGI [6] [µM] | TGI [7] [µM] | TGI [8] [µM] | TGI [9] [µM] | GI50 [1] [µM] | GI50 [8] [µM] | GI50 [2] [µM] | GI50 [9] [µM] | GI50 [3] [µM] | GI50 [4] [µM] | GI50 [5] [µM] | GI50 [7] [µM] | TGI [10] [µM] | GI50 [10] [µM] | GI50 [6] [µM]
CN1CCN=C1c1nnn(-c2ccc([N+](=O)[O-])cc2)c1-c1ccccc1 | > 100 | > 100 | > 100 | – | > 100 | > 100 | > 100 | – | – | – | – | – | – | – | – | – | – | – | – | –
COc1cc(OC)c2c(=O)cc(-c3ccccc3OCc3ccccc3)oc2c1OC | – | > 100 | > 100 | > 100 | 26.8 | 40 | > 100 | > 100 | 71.8 | – | 18.5 | 16.2 | 5.6 | > 100 | 2.83 | 4.65 | 41.7 | – | – | 12.4
C=CC1C(CC2OC(CO)C(O)C(O)C2O)OC=C2C(=O)OCCC21O (centres undefined) | 45.2 | 49.9 | 62.4 | 8.43 | 62.5 | – | 37.1 | 62.6 | 99.6 | 19.9 | 13.8 | 19.5 | 40.9 | 16.7 | 2.32 | 23.5 | 13.8 | > 100 | 34.6 | –
COc1cc(Cc2c(C)cc(OC)c3[nH]c4ccccc4c23)cc2c1[nH]c1ccccc12 | > 25 | > 25 | 10.9 | > 25 | – | 9.23 | > 25 | – | – | 12 | – | 6.89 | – | – | – | – | – | – | – | 4.61
CS(=O)(=O)c1ccc(COP(N)(=O)N(CCCl)CCCl)cc1 (centres undefined) | > 100 | > 100 | > 100 | > 100 | > 100 | > 100 | > 100 | – | – | – | – | – | – | – | – | – | – | – | – | –
NC1=NC(SCc2ccccc2CCl)c2ncn(Cc3ccccc3CCl)c2N1 (centres undefined) | 3.49 | 12.3 | 5.09 | – | 5 | 10.4 | 23.2 | 2.7 | 11.4 | 1.64 | 1.35 | 2.9 | 2.9 | 2.01 | – | 1.98 | 4.83 | > 100 | 3.51 | 2.92
CCCCNS(=O)(=O)c1ccc(-c2ccc3c(c2)-c2ccc(S(=O)(=O)NCCCC)cc2S3(=O)=O)cc1 | > 100 | > 100 | 24.9 | > 100 | 45.1 | 27.4 | – | – | – | – | – | – | – | – | – | – | – | – | – | –
CCCCCCC(=O)C/C(CCC(=O)N(Cc1ccccc1)Cc1ccccc1)=N\NC(N)=O | > 100 | > 100 | > 100 | > 100 | > 100 | > 100 | > 100 | – | – | – | – | – | – | – | – | – | – | – | – | –
COc1ccc2c(c1O)[C@@]13CCCC=C1[C@@H](C2)[N+](C)(C)CC3 | > 100 | > 100 | > 100 | – | > 100 | – | > 100 | > 100 | > 100 | – | – | – | – | – | – | – | – | > 100 | – | –
COC(=O)/C(C#N)=C1\CCC(OC)N1C (centres undefined) | > 100 | > 100 | > 100 | > 100 | > 100 | > 100 | > 100 | – | – | – | – | – | – | – | – | – | – | – | – | –
CCc1ccc2oc(=O)ccc2c1 | > 100 | > 100 | > 100 | > 100 | > 100 | > 100 | > 100 | – | – | – | – | – | – | – | – | – | – | > 100 | – | –
CCC(C)(O)c1cn(-c2ccc(Cl)cc2)nn1 (centres undefined) | > 100 | > 100 | > 100 | > 100 | > 100 | > 100 | > 100 | – | – | – | – | – | – | – | – | – | – | – | – | –
O=C(O)c1c2c(cc3c(=O)c4ccccc4[nH]c13)CCCC2 | > 100 | > 100 | > 100 | > 100 | > 100 | > 100 | > 100 | – | – | – | – | – | – | – | – | – | – | – | – | –
COc1cc2c(cc1OC)C(C(CBr)CBr)N(C1CCCC1)CC2 (centres undefined) | > 100 | > 100 | > 100 | > 100 | > 100 | > 100 | > 100 | – | – | – | – | – | – | – | – | – | – | – | – | –
O=C1OC(=O)C23CSCC12C1C=CC3O1 (centres undefined) | > 100 | > 100 | > 100 | > 100 | > 100 | > 100 | > 100 | – | – | – | – | – | – | – | – | – | – | – | – | –
Cc1ccccc1-n1c(=S)[nH]c2c(sc(=O)n2-c2ccccc2C)c1=O | > 100 | > 100 | > 100 | > 100 | > 100 | > 100 | > 100 | – | – | – | – | – | – | – | – | – | – | – | – | –
CN1CCC(c2c(O)cc(O)c3c(=O)cc(-c4ccccc4Cl)oc23)C(O)C1 (centres undefined) | 0.255 | > 100 | – | 0.0285 | – | > 100 | > 100 | – | – | – | – | 0.0506 | – | – | – | – | – | – | – | 0.288
COC(=O)C(=O)C(C(=O)C(=O)Nc1ccccc1[N+](=O)[O-])c1nc2ccc([N+](=O)[O-])cc2[nH]c1=O (centres undefined) | > 100 | > 100 | > 100 | > 100 | > 100 | – | > 100 | – | – | – | – | – | – | – | – | – | – | – | – | –

— PubChem BioAssay (NCI)
